± gives the expanded uncertainty stated by the source.
Experiments:
[1] = Crystal; DTA
[2] = Molar enthalpy of transition or fusion; settings: Crystal; DSC

Normal melting temperature [1]: 77.60 ± 1.1 °C
Molar enthalpy of transition or fusion [2]: 4.76 ± 0.263 kcal/mol
Structure (SMILES): O=C(O)CO [2-hydroxyethanoic acid]

— the NIST ThermoML archive (doi:10.1016/j.jct.2017.01.004)
